The supplement of paper PMC10627819
Values after ≈ are worked out from the molar mass of the structure shown.

What was measured:
[1] = test system: S. aureus Newman; assay: fitness (endpoint OD595 vs no drug) (fraction); higher = more growth
Outline: (§1)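 Volumes were 30 µl per well, or 55 µl for S. pneumoniae, in 384-well plates inoculated at OD595 0.01. Media were TSB, LB Lennox or CY at 37 °C, and OD595 was read every 30 min for 14 h with first-reading background subtraction. Fitness is the ratio of optical density at stationary-phase entry to the robust mean of no-drug controls. That ratio is capped at 1.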

[2] = test system: S. aureus DSM 20231; assay: as above
Outline: as §1

[3] = test system: S. pneumoniae D39V; assay: as above
Outline: as §1

[4] = test system: B. subtilis 168; assay: as above
Outline: as §1

[5] = test system: S. aureus Newman; assay: Bliss interaction score (quartile over a dose matrix) (fitness difference); higher = more antagonism (negative = synergy)
Outline: (§2)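 Fitness here means normalised growth, inferred for single drugs from the combination data. Growth was OD595 at entry into stationary phase, divided by the plate's robust no-drug mean and capped at 1. The Bliss score is observed minus expected fitness, with the expectation being the product, and its quartiles span technical, biological and donor/recipient replicates.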

[6] = test system: S. aureus DSM 20231; assay: as above
Outline: as §2

[7] = test system: S. pneumoniae D39V; assay: as above
Outline: as §2

[8] = test system: B. subtilis 168; assay: as above
Outline: as §2

[9] = test system: S. aureus Newman
[10] = test system: S. aureus DSM 20231
[11] = test system: S. pneumoniae D39V
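Wherever Bliss interaction score (quartile over a dose matrix) is given: first quartile when negative (synergy) and third quartile when positive (antagonism).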

Cc1onc(-c2ccccc2)c1C(=O)N[C@@H]1C(=O)N2[C@@H]1SC(C)(C)[C@@H]2C(=O)O [Oxacillin] + CN(N=O)C(=O)N[C@@H](C=O)[C@@H](O)[C@H](O)[C@H](O)CO [Streptozotocin]
fitness
Conditions	first compound 0.01 µg/mL	first compound 0.0156 µg/mL	first compound 0.02 µg/mL	first compound 0.0312 µg/mL	first compound 0.04 µg/mL	first compound 0.0625 µg/mL
[1], partner 0.15 µg/mL	–	0.663	–	0.613	–	0.538
[1], partner 0.3 µg/mL	–	0.593	–	0.57	–	0.466
[1], partner 0.6 µg/mL	–	0.454	–	0.387	–	0.228
[2], partner 0.15 µg/mL	–	0.693	–	0.596	–	0.462
[2], partner 0.3 µg/mL	–	0.635	–	0.582	–	0.493
[2], partner 0.6 µg/mL	–	0.549	–	0.494	–	0.396
[3], partner 1.2 µg/mL	0.941	–	0.889	–	0.243	–
[3], partner 2.4 µg/mL	0.977	–	0.873	–	0.245	–
[3], partner 4.8 µg/mL	0.927	–	0.866	–	0.212	–

fitness, [4], one replicate
Conditions	first compound 0.002 µg/mL	first compound 0.004 µg/mL	first compound 0.008 µg/mL	first compound 0.075 µg/mL	first compound 0.15 µg/mL	first compound 0.3 µg/mL
partner 0.15 µg/mL	≥ 1	≥ 1	0.946	0.593	0.0403	0.0476
partner 0.3 µg/mL	0.98	≥ 1	0.983	0.377	0.0243	0.0338
partner 0.6 µg/mL	0.998	≥ 1	0.882	0.593	0.0217	0.0158

Conditions	Bliss interaction score
[5]	-0.0656
[6]	-0.0548
[7]	-0.0748
[8]	0.0537

Cn1c2cccc(=O)c-2nc2ccccc21 [Pyocyanin] + Cc1cc(NS(=O)(=O)c2ccc(N)cc2)no1 [Sulfamethoxazol]
one replicate
Conditions	fitness
[1], first compound 1.25 µg/mL, partner 8 µg/mL	0.911
[1], first compound 2.5 µg/mL, partner 8 µg/mL	0.858
[1], first compound 5 µg/mL, partner 8 µg/mL	0.778
[3], first compound 1.3 µg/mL, partner 1 µg/mL	0.637
[3], first compound 1.3 µg/mL, partner 2 µg/mL	0.679
[3], first compound 1.3 µg/mL, partner 4 µg/mL	0.615
[4], first compound 1.25 µg/mL, partner 0.5 µg/mL	0.915
[4], first compound 2.5 µg/mL, partner 0.5 µg/mL	0.884
[4], first compound 5 µg/mL, partner 0.5 µg/mL	0.632

fitness
Conditions	partner 1 µg/mL	partner 2 µg/mL	partner 4 µg/mL
[2], first compound 1.25 µg/mL	0.929	0.939	0.925
[2], first compound 2.5 µg/mL	0.831	0.903	0.893
[2], first compound 5 µg/mL	0.641	0.674	0.689
[3], first compound 0.325 µg/mL	0.983	≥ 1	0.96
[3], first compound 0.65 µg/mL	0.936	0.975	0.933
[4], first compound 1.25 µg/mL	0.869	0.862	0.877
[4], first compound 2.5 µg/mL	0.852	0.738	0.868
[4], first compound 5 µg/mL	0.669	0.685	0.774

Conditions	Bliss interaction score
[5]	-0.0714
[6]	0.0564
[7]	-0.0551
[8]	-0.063

Cc1onc(-c2ccccc2)c1C(=O)N[C@@H]1C(=O)N2[C@@H]1SC(C)(C)[C@@H]2C(=O)O [Oxacillin]
Conditions	fitness
[1], 0.0156 µg/mL	0.843
[1], 0.0312 µg/mL	0.759
[1], 0.0625 µg/mL	0.608
[2], 0.0156 µg/mL	0.972
[2], 0.0312 µg/mL	0.889
[2], 0.0625 µg/mL	0.621
[3], 0.005 µg/mL	≥ 1
[3], 0.01 µg/mL	0.996
[3], 0.02 µg/mL	0.986
[3], 0.04 µg/mL	0.515
[4], 0.002 µg/mL	0.925
[4], 0.004 µg/mL	0.936
[4], 0.0078 µg/mL	0.941
[4], 0.008 µg/mL	0.962
[4], 0.0155 µg/mL	0.952
[4], 0.031 µg/mL	0.902

Conditions	MIC [µg/mL]
[9]	0.069 (≈ 0.172 µM)
[10]	0.069 (≈ 0.172 µM)
[11]	0.031 (≈ 0.0772 µM)

Cc1onc(-c2ccccc2)c1C(=O)N[C@@H]1C(=O)N2[C@@H]1SC(C)(C)[C@@H]2C(=O)O [Oxacillin] + COc1ccc(C[C@H](N)C(=O)N[C@H]2[C@@H](O)[C@H](n3cnc4c(N(C)C)ncnc43)O[C@@H]2CO)cc1 [Puromycin]
Conditions	fitness
[1], first compound 0.0156 µg/mL, partner 0.78 µg/mL	0.85
[1], first compound 0.0156 µg/mL, partner 1.56 µg/mL	0.806
[1], first compound 0.0312 µg/mL, partner 0.39 µg/mL	0.765
[1], first compound 0.0312 µg/mL, partner 0.78 µg/mL	0.788
[2], first compound 0.0156 µg/mL, partner 0.39 µg/mL	0.84
[2], first compound 0.0156 µg/mL, partner 0.78 µg/mL	0.902
[2], first compound 0.0156 µg/mL, partner 1.56 µg/mL	0.91
[2], first compound 0.0312 µg/mL, partner 0.39 µg/mL	0.72
[2], first compound 0.0312 µg/mL, partner 0.78 µg/mL	0.737
[2], first compound 0.0312 µg/mL, partner 1.56 µg/mL	0.748
[2], first compound 0.0625 µg/mL, partner 0.39 µg/mL	0.481
[2], first compound 0.0625 µg/mL, partner 0.78 µg/mL	0.555
[2], first compound 0.0625 µg/mL, partner 1.56 µg/mL	0.546
[3], first compound 0.01 µg/mL, partner 1 µg/mL	≥ 1
[3], first compound 0.01 µg/mL, partner 2 µg/mL	0.969
[3], first compound 0.01 µg/mL, partner 4 µg/mL	0.918
[3], first compound 0.02 µg/mL, partner 1 µg/mL	0.984
[3], first compound 0.02 µg/mL, partner 2 µg/mL	0.949
[3], first compound 0.02 µg/mL, partner 4 µg/mL	0.863
[3], first compound 0.04 µg/mL, partner 1 µg/mL	0.668
[3], first compound 0.04 µg/mL, partner 2 µg/mL	0.644
[3], first compound 0.04 µg/mL, partner 4 µg/mL	0.281
[4], first compound 0.002 µg/mL, partner 0.39 µg/mL	0.98
[4], first compound 0.002 µg/mL, partner 0.78 µg/mL	0.966
[4], first compound 0.002 µg/mL, partner 1.56 µg/mL	0.932
[4], first compound 0.004 µg/mL, partner 0.39 µg/mL	0.974
[4], first compound 0.004 µg/mL, partner 0.78 µg/mL	0.914
[4], first compound 0.004 µg/mL, partner 1.56 µg/mL	0.9
[4], first compound 0.008 µg/mL, partner 0.39 µg/mL	0.88
[4], first compound 0.008 µg/mL, partner 0.78 µg/mL	0.879
[4], first compound 0.008 µg/mL, partner 1.56 µg/mL	0.864

fitness, one replicate
Conditions	first compound 0.0156 µg/mL	first compound 0.0312 µg/mL	first compound 0.0625 µg/mL	first compound 0.075 µg/mL	first compound 0.15 µg/mL	first compound 0.3 µg/mL
[2], partner 3.12 µg/mL	0.887	0.788	0.66	–	–	–
[2], partner 6.24 µg/mL	0.609	0.606	0.548	–	–	–
[4], partner 0.39 µg/mL	–	–	–	0.523	0.0695	0.0402
[4], partner 0.78 µg/mL	–	–	–	0.645	0.0521	0.0336
[4], partner 1.56 µg/mL	–	–	–	0.632	0.0547	0.0573

Conditions	Bliss interaction score
[5]	0.0763
[6]	0.0572
[7]	0.167
[8]	0.0568
